The results in this text go back to ChEMBL document CHEMBL5346893, “1,2,4-Amino-triazine derivatives as pyruvate dehydrogenase kinase inhibitors: Synthesis and pharmacological evaluation” (Eur J Med Chem, 2023).

Calls of active or inactive are those of the source. The rule behind the calls is not given here.

The term inhibition denotes how much of the control response was suppressed. By IC50 is commonly meant the point on the concentration scale where inhibition reaches its midpoint. What is called residual activity is the signal under treatment as a percentage of the control signal.

A short description of data set [1]: Toxicity in C57BL mouse implanted with mouse Lewis lung carcinoma cell line assessed as anorexia at 20 mg/kg, ip administered daily on day 7 to 14 measured after 15 days. Format: organism-based. The settings on record: in vivo, 360 h, time 15 day.
Data set [2] in a line: Toxicity in C57BL mouse implanted with mouse Lewis lung carcinoma cell line assessed as reduction in body weight loss at 20 mg/kg, ip administered daily on day 7 to 14 measured after 15 days. As to conditions: in vivo, 360 h, time 15 day. In kind it is organism-based.
The target in data set [3] is [Pyruvate dehydrogenase (acetyl-transferring)] kinase isozyme 2, mitochondrial (Homo sapiens) (UniProt Q15119). The data set is described as follows: Inhibition of PDK2 (unknown origin) at 1.5 uM incubated for 30 mins followed by substrate addition measured after 60 mins in presence of ATP by ADP-Glo luminescent assay relative to control. As to conditions: time 90.0 min. For orientation: In ADP-Glo the light output rises with the ADP produced.

The target of data set [4] is [Pyruvate dehydrogenase (acetyl-transferring)] kinase isozyme 3, mitochondrial (Homo sapiens) (UniProt Q15120). The data set is described as follows: Inhibition of PDK3 (unknown origin) at 1.5 uM incubated for 30 mins followed by substrate addition measured after 60 mins in presence of ATP by ADP-Glo luminescent assay relative to control. The settings on record: time 90.0 min.

For data set [5], the system named is PSN1. The experiment in a line: Induction of mitochondrial damage in human PSN1 cells assessed as increase in disruption of cristae at IC50 incubated for 24 hrs by staining based TEM analysis. Format: functional, cell-based.
The nature of data set [6]: In vivo antitumor activity against mouse Lewis lung carcinoma cell line implanted in C57BL mouse assessed as tumor growth inhibition at 20 mg/kg, ip administered daily on day 7 to 14 measured after 15 days. In kind it is functional. As to conditions: 360 h, time 15 day, read-out: TGI.
Data set [7] has as its system PSN1. The data set is described as follows: Induction of apoptosis in human PSN1 cells assessed as brightly stained nuclei at IC50 incubated for 48 hrs by Hoechst 33258 staining based confocal microscopic analysis. Format: functional, cell-based.
Data set [8] has as its system PSN1. The experiment in a line: Inhibition of PDK in human PSN1 cells expressing KRAS mutant assessed as increase in cellular oxygen consumption at IC50 incubated for 60 mins by fluorescence based analysis. In kind it is cell-based.
The target of data set [9] is [Pyruvate dehydrogenase (acetyl-transferring)] kinase isozyme 4, mitochondrial (Homo sapiens) (UniProt Q16654). The data set is described as follows: Inhibition of PDK4 (unknown origin) at 1.5 uM incubated for 30 mins followed by substrate addition measured after 60 mins in presence of ATP by ADP-Glo luminescent assay relative to control. The settings on record: time 90.0 min.

The test system of data set [10] is PSN1. The experiment in a line: Induction of mitochondrial damage in human PSN1 cells assessed as decrease in mitochondria matrix region electron density at IC50 incubated for 24 hrs by staining based TEM analysis. In kind it is functional, cell-based.
Data set [11] relates to Lewis lung carcinoma. The experiment in a line: In vivo antitumor activity against mouse Lewis lung carcinoma cell line implanted in C57BL mouse assessed as reduction in PDHA1 phosphorylation at 20 mg/kg, ip administered daily on day 7 to 14 measured after 15 days by ELISA assay. In kind it is functional, organism-based. As to conditions: time 15.0 day. (In general: ELISA stands for enzyme-linked immunosorbent assay.)

Data set [12] addresses T1, Heat shock protein HSP90 (Homo sapiens, UniProt P07900+P08238). The experiment in a line: Inhibition of human recombinant HSP90 at 1.5 uM incubated for 30 mins by fluorescence polarization based analysis relative to control. In kind it is protein assay. Background: Polarisation of emitted light reports the rotation of a fluorescent probe.
The subject of data set [13] is BXPC-3. The data set is described as follows: Antiproliferative activity against human BXPC-3 cells expressing wild type KRAS cultured as 2D spheroids assessed as inhibition of cell growth measured after 72 hrs by MTT assay. As to conditions: BXPC-3, 72 h. In kind it is functional, cell-based.
For data set [14], the system named is PSN1. The data set is described as follows: Inhibition of PDK in human PSN1 cells expressing KRAS mutant assessed as decrease in lactate production levels at IC50 incubated for 60 mins by colorimetric analysis. Format: cell-based.
The target in data set [15] is T2, [Pyruvate dehydrogenase (acetyl-transferring)] kinase isozyme 1, mitochondrial (Homo sapiens, UniProt Q15118). The experiment in a line: Inhibition of PDK1 (unknown origin) incubated for 30 mins followed by substrate addition measured after 60 mins in presence of ATP by ADP-Glo luminescent assay.
Data set [16] concerns PSN1. The experiment in a line: Induction of reactive oxygen species production in human PSN1 cells assessed as decrease in total cellular sulfhydryls level at IC50 incubated for 24 hrs by DTNB reagent based spectrophotometric analysis. Format: functional, cell-based.
For data set [17], the system named is PSN1. The data set is described as follows: Antiproliferative activity against human PSN1 cells expressing KRAS mutant cultured as 3D spheroids assessed as inhibition of cell growth measured after 72 hrs by MTT assay. In kind it is functional, cell-based. The settings on record: PSN1, 72 h.
Data set [18] deals with T2, [Pyruvate dehydrogenase (acetyl-transferring)] kinase isozyme 1, mitochondrial. The data set is described as follows: Inhibition of PDK1 (unknown origin) at 1.5 uM incubated for 30 mins followed by substrate addition measured after 60 mins in presence of ATP by ADP-Glo luminescent assay relative to control. As to conditions: time 90.0 min, values are per cent of control.

Data set [19] has as its system PSN1. The data set is described as follows: Induction of mitochondrial damage in human PSN1 cells assessed as increase in mitochondria substantial swelling at IC50 incubated for 24 hrs by staining based TEM analysis. In kind it is functional, cell-based.
In data set [20] the target is T1, Heat shock protein HSP90. The experiment in a line: Inhibition of human recombinant HSP90 incubated for 30 mins by fluorescence polarization based analysis. Format: protein assay.
For data set [21], the system named is BXPC-3. The experiment in a line: Antiproliferative activity against human BXPC-3 cells expressing wild type KRAS cultured as 3D spheroids assessed as inhibition of cell growth measured after 72 hrs by MTT assay. Format: functional, cell-based. As to conditions: BXPC-3, 72 h.
For data set [22], the system named is PSN1. The data set is described as follows: Induction of reactive oxygen species production in human PSN1 cells assessed as increase in cellular hydrogen peroxide formation at 5 uM by CM-H2DCFDA staining based analysis. In kind it is functional, cell-based.
In data set [23] the test system is PSN1. The experiment in a line: Induction of mitochondrial membrane potential loss in human PSN1 cells at IC50 incubated for 60 mins by fluorescence based analysis. Format: functional. As to conditions: 1 h.
In data set [24] the test system is PSN1. The data set is described as follows: Induction of apoptosis in human PSN1 cells assessed as chromatin condensation at IC50 incubated for 48 hrs by Hoechst 33258 staining based confocal microscopic analysis. Format: functional, cell-based.
The subject of data set [25] is PSN1. The data set is described as follows: Induction of mitochondrial damage in human PSN1 cells assessed as decrease in mitochondria inner membrane electron density at IC50 incubated for 24 hrs by staining based TEM analysis. In kind it is functional, cell-based.
Data set [26] deals with PSN1. The experiment in a line: Downregulation of PDHA1 phosphorylation in human PSN1 cells at IC50 incubated for 24 hrs by ELISA assay. In kind it is functional, cell-based.
Data set [27] deals with PSN1. The experiment in a line: Antiproliferative activity against human PSN1 cells expressing KRAS mutant cultured as 2D spheroids assessed as inhibition of cell growth measured after 72 hrs by MTT assay. In kind it is functional, cell-based. As to conditions: PSN1, 72 h.
A short description of data set [28]: In vivo antitumor activity against mouse Lewis lung carcinoma cell line implanted in C57BL mouse assessed as tumor growth inhibition at 60 mg/kg, ip administered daily on day 7 to 14 measured after 15 days. Format: functional. The settings on record: 360 h, time 15 day, read-out: TGI.

T2 sequence (Q15118 whole entry): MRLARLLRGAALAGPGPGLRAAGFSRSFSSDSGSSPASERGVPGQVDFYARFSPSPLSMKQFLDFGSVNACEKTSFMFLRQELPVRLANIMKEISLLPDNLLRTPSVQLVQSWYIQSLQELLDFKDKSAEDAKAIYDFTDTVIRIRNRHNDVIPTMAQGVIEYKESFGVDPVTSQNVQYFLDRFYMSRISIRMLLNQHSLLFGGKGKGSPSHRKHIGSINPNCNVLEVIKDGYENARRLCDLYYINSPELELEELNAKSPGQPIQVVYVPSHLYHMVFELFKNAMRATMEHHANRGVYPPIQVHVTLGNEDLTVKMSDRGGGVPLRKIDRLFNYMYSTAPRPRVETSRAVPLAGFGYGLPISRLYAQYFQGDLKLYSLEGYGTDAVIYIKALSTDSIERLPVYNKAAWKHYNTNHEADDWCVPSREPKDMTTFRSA
Chain of [Pyruvate dehydrogenase (acetyl-transferring)] kinase isozyme 4, mitochondrial (Homo sapiens) (Q16654 whole entry, looked up): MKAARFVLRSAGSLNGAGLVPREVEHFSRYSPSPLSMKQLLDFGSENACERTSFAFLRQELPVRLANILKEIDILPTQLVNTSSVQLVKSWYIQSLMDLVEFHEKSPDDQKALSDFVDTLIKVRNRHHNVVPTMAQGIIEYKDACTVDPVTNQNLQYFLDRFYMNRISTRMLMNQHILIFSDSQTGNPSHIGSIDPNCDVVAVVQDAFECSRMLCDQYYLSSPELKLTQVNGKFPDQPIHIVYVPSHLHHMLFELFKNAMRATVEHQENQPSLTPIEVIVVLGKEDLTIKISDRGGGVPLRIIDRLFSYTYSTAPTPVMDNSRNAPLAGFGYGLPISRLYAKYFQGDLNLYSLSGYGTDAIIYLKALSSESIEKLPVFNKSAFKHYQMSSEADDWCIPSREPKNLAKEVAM
Chain of [Pyruvate dehydrogenase (acetyl-transferring)] kinase isozyme 3, mitochondrial (Homo sapiens) (Q15120 whole entry, looked up): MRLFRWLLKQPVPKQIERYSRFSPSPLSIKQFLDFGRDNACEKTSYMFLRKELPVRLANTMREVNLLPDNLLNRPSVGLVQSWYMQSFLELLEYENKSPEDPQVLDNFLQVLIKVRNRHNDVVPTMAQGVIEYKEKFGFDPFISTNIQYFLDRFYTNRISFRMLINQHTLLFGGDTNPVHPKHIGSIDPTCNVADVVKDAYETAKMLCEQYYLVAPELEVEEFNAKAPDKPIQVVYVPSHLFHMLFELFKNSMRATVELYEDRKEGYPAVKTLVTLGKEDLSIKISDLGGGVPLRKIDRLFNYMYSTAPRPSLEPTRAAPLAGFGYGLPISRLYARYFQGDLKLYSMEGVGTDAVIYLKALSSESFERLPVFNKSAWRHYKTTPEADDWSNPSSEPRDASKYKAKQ

For the compound `COc1ccc2[nH]cc(-c3nnc(N)nc3-c3cn(C)c4ncc(Br)cc34)c2c1`, the Activity was ~ 20% in data set [1], “Non-Toxic” in data set [2] and 45% in data set [23]. Besides, the inhibition in data set [3] was 100%; in data set [4] it was 100%; in data set [9], 0%; in data set [12] it was 0%. Also, the outcome in data set [5], in data set [7], in [10], in data set [11], in [16] and in data set [19] was Active. For the same compound, the outcome in data set [22], in data set [24], in data set [25] and in data set [26] was Active. In addition, the inhibition in vivo at 20 mg/kg in data set [6] was determined as 86%. Further, the inhibition entry in data set [8] and in [14] was “Active” in each case. Moreover, the IC50 in [13] was 0.1 µM; in data set [15], 0.03 µM; in data set [17], 11.9 µM; in [20], 0.1 µM; in data set [21] it was 3.3 µM; in [27], 1 µM. Besides, the residual activity in [18] worked out at 0%.
On to `Nc1ccn([C@@H]2O[C@H](CO)[C@@H](O)C2(F)F)c(=O)n1` [GEMCITABINE], for which, in [28], the inhibition in vivo at 60 mg/kg came to 80%. The IC50 in data set [13] was determined as 0.1 µM; in data set [27], 0.02 µM.
